Reference: ChEMBL document CHEMBL1201862, “PubChem BioAssay data set” (2004)
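Protocol summary: plate cells (96-well), add compound at 5 concentrations, incubate 48 h, interpolate endpoints linearly. Here, GI50 denotes the concentration required for 50% inhibition of growth.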 Activity calls are given as the source filed them. No stated cut-off is given here; in the data, active = GI50 up to about 1.1 µM and inactive = higher.

Legend:
Experiment in all cases: growth of human tumour cells (NCI), 48 h
U-251 = tested on: U-251
A498 = tested on: A498
Malme-3M = tested on: Malme-3M
HL-60 = tested on: HL-60
SK-OV-3 = tested on: SK-OV-3
SK-MEL-5 = tested on: SK-MEL-5
LOX IMVI = tested on: LOX IMVI
OVCAR-8 = tested on: OVCAR-8
HOP-92 = tested on: HOP-92
SF-295 = tested on: SF-295
M14 = tested on: M14
NCI-H226 = tested on: NCI-H226
MCF7 = tested on: MCF7
DU-145 = tested on: DU-145
SW-620 = tested on: SW-620
HCT-116 = tested on: HCT-116
IGROV-1 = tested on: IGROV-1
RPMI-8226 = tested on: RPMI-8226
CCRF-CEM = tested on: CCRF-CEM
OVCAR-5 = tested on: OVCAR-5

Measured: GI50

COc1cc2c(cc1OC)C13CC[N+]4(C)CC5=CCOC6CC(=O)N2C1C6C5CC34[O-] (stereo not drawn)
inactive: U-251 > 100 µM | A498 > 100 µM | Malme-3M > 100 µM | HL-60 > 100 µM | SK-OV-3 > 100 µM | SK-MEL-5 > 100 µM | LOX IMVI > 100 µM | OVCAR-8 > 100 µM | HOP-92 > 100 µM | SF-295 > 100 µM | M14 > 100 µM | NCI-H226 > 100 µM | MCF7 > 100 µM | DU-145 > 100 µM | SW-620 > 100 µM | HCT-116 > 100 µM | IGROV-1 > 100 µM | RPMI-8226 > 100 µM | CCRF-CEM > 100 µM

Cc1ccc(S(=O)(=O)N/N=C2\CC(C)OC3=C2CCCCCC3)cc1 (stereo not drawn)
inactive: A498 15.5 µM | Malme-3M 21.7 µM | HL-60 23 µM | SK-OV-3 26.1 µM | SK-MEL-5 16.9 µM | LOX IMVI 18.7 µM | OVCAR-8 21.2 µM | OVCAR-5 19.5 µM | HOP-92 19.6 µM | SF-295 15.8 µM | M14 20.3 µM | NCI-H226 21.6 µM | MCF7 19 µM | DU-145 19.4 µM | SW-620 20.5 µM | HCT-116 16.5 µM | IGROV-1 19.1 µM | RPMI-8226 21.9 µM | CCRF-CEM 24.7 µM

O=[N+]([O-])c1ccc(Sc2c3ccccc3nc3ccccc23)nc1
inactive: U-251 24.3 µM | A498 18.5 µM | Malme-3M 2.11 µM | HL-60 4.48 µM | SK-OV-3 13.2 µM | SK-MEL-5 16.7 µM | LOX IMVI 2.24 µM | OVCAR-8 22 µM | OVCAR-5 18.6 µM | HOP-92 1.95 µM | SF-295 26.1 µM | M14 3.22 µM | NCI-H226 16.3 µM | MCF7 3.79 µM | DU-145 6.93 µM | SW-620 2.08 µM | HCT-116 2.09 µM | IGROV-1 16.7 µM | RPMI-8226 2.21 µM | CCRF-CEM 2.51 µM

CC1(C)OC(=S)N(c2ccccc2)C12C=Cc1ccccc1O2 (stereo not drawn)
inactive: U-251 > 100 µM | A498 > 100 µM | HL-60 8.59 µM | SK-OV-3 16.6 µM | SK-MEL-5 56.5 µM | LOX IMVI > 100 µM | OVCAR-8 > 100 µM | OVCAR-5 > 100 µM | HOP-92 88.3 µM | SF-295 73.5 µM | M14 90.6 µM | NCI-H226 85.3 µM | MCF7 61.1 µM | DU-145 > 100 µM | SW-620 72.3 µM | HCT-116 36.6 µM | IGROV-1 41.6 µM | RPMI-8226 24.8 µM | CCRF-CEM 27.8 µM

Cc1cc2c3c(c1)S(=O)(=O)c1cc(Cl)ccc1N3CCC2
inactive: A498 > 100 µM | Malme-3M > 100 µM | HL-60 > 100 µM | SK-OV-3 > 100 µM | SK-MEL-5 > 100 µM | LOX IMVI > 100 µM | OVCAR-8 > 100 µM | OVCAR-5 > 100 µM | HOP-92 > 100 µM | SF-295 56 µM | M14 > 100 µM | NCI-H226 > 100 µM | MCF7 > 100 µM | DU-145 > 100 µM | SW-620 > 100 µM | HCT-116 > 100 µM | IGROV-1 84.3 µM | CCRF-CEM > 100 µM

N#CC1=C(N)OC2=C(CCCc3ccc([N+](=O)[O-])cc32)C1c1ccccc1 (stereo not drawn)
inactive: U-251 4.71 µM | A498 2.76 µM | Malme-3M 7.45 µM | HL-60 1.64 µM | SK-OV-3 8.07 µM | SK-MEL-5 3.38 µM | LOX IMVI 5.35 µM | OVCAR-8 7.48 µM | OVCAR-5 11 µM | HOP-92 6.46 µM | SF-295 3.21 µM | M14 3.13 µM | NCI-H226 8.3 µM | MCF7 3.45 µM | DU-145 4.86 µM | SW-620 3.63 µM | HCT-116 4.23 µM | IGROV-1 4.19 µM | RPMI-8226 2.9 µM

Cc1ccc(C(CCO)CCO)nc1
inactive: U-251 > 100 µM | A498 > 100 µM | Malme-3M > 100 µM | HL-60 > 100 µM | SK-OV-3 > 100 µM | SK-MEL-5 > 100 µM | LOX IMVI > 100 µM | OVCAR-8 > 100 µM | OVCAR-5 > 100 µM | HOP-92 > 100 µM | SF-295 > 100 µM | M14 > 100 µM | NCI-H226 > 100 µM | MCF7 > 100 µM | DU-145 > 100 µM | SW-620 > 100 µM | HCT-116 > 100 µM | RPMI-8226 > 100 µM | CCRF-CEM > 100 µM

C#CCOC(=O)C=[N+]=[N-]
inactive: U-251 > 10 µM | A498 6.92 µM | Malme-3M > 10 µM | HL-60 > 10 µM | SK-OV-3 > 10 µM | LOX IMVI > 10 µM | OVCAR-8 > 10 µM | OVCAR-5 > 10 µM | HOP-92 > 10 µM | SF-295 > 10 µM | M14 > 10 µM | NCI-H226 > 10 µM | MCF7 > 10 µM | DU-145 > 10 µM | SW-620 > 10 µM | HCT-116 > 10 µM | IGROV-1 > 10 µM | RPMI-8226 > 10 µM | CCRF-CEM > 10 µM

COc1cc(C2S/C(=C/c3ccccc3)C(=O)N2Cc2ccccc2)cc(OC)c1OC (stereo not drawn)
inactive: U-251 32.7 µM | A498 45.5 µM | HL-60 21.2 µM | SK-OV-3 42.1 µM | SK-MEL-5 28.2 µM | LOX IMVI 32.1 µM | OVCAR-8 37.6 µM | OVCAR-5 > 100 µM | HOP-92 28.8 µM | SF-295 28.5 µM | M14 33.1 µM | NCI-H226 > 100 µM | MCF7 61.1 µM | DU-145 47 µM | HCT-116 17.5 µM | IGROV-1 42.2 µM | RPMI-8226 21.5 µM | CCRF-CEM 23.1 µM

O=C1c2cc([N+](=O)[O-])ccc2-c2cccc(F)c21
inactive: U-251 90.4 µM | A498 65.6 µM | HL-60 38.5 µM | SK-OV-3 > 100 µM | SK-MEL-5 70.6 µM | LOX IMVI 60 µM | OVCAR-8 43.1 µM | OVCAR-5 > 100 µM | HOP-92 > 100 µM | SF-295 > 100 µM | M14 > 100 µM | NCI-H226 96.4 µM | MCF7 31.3 µM | DU-145 > 100 µM | SW-620 48.3 µM | HCT-116 67.6 µM | IGROV-1 40.7 µM | RPMI-8226 64.1 µM | CCRF-CEM 23.7 µM

Cc1ccc(S(=O)(=O)NC(=O)C2C(=O)CC3(CCCCC3)CC2=O)cc1
inactive: U-251 38.4 µM | A498 28.4 µM | HL-60 29.5 µM | SK-OV-3 28.2 µM | SK-MEL-5 25.4 µM | LOX IMVI 55.2 µM | OVCAR-8 27.7 µM | OVCAR-5 24.4 µM | HOP-92 14.8 µM | SF-295 22 µM | M14 34.5 µM | NCI-H226 34.8 µM | MCF7 22.8 µM | DU-145 37.5 µM | SW-620 27.6 µM | HCT-116 25.9 µM | IGROV-1 29.4 µM | RPMI-8226 23.1 µM | CCRF-CEM 27.3 µM

C/C=C\C(C)=C/C(C)C(=O)CC(O)CC1CC(=O)NC(=O)C1 (stereo not drawn)
inactive: U-251 31.2 µM | A498 28.6 µM | HL-60 40.2 µM | SK-OV-3 5.77 µM | SK-MEL-5 17.9 µM | LOX IMVI 20.6 µM | OVCAR-8 8.71 µM | OVCAR-5 4.86 µM | HOP-92 72.8 µM | SF-295 5.79 µM | M14 13.6 µM | NCI-H226 35.5 µM | MCF7 21 µM | DU-145 19.1 µM | SW-620 20.2 µM | HCT-116 16.4 µM | IGROV-1 19 µM | RPMI-8226 19 µM | CCRF-CEM 10.1 µM

COC(=O)C(Cc1ccccc1I)C1=CCC2(CC1)OCCO2 (stereo not drawn)
inactive: U-251 45.4 µM | A498 74.1 µM | Malme-3M 22.9 µM | HL-60 18.7 µM | SK-OV-3 36.9 µM | SK-MEL-5 16.8 µM | LOX IMVI 23.3 µM | OVCAR-8 35.2 µM | OVCAR-5 11.3 µM | HOP-92 28.2 µM | SF-295 29.2 µM | M14 22.3 µM | NCI-H226 79.3 µM | MCF7 27.7 µM | DU-145 25 µM | SW-620 44.4 µM | IGROV-1 41 µM | RPMI-8226 30 µM | CCRF-CEM 41.7 µM

O=C(O)/C(=C/C(=O)c1ccc(Cl)cc1)NNc1ccc([N+](=O)[O-])cc1[N+](=O)[O-]
inactive: U-251 47.9 µM | A498 > 100 µM | Malme-3M 30.5 µM | HL-60 49.3 µM | SK-OV-3 35.6 µM | SK-MEL-5 > 100 µM | LOX IMVI 75.3 µM | OVCAR-8 29.5 µM | OVCAR-5 82.8 µM | HOP-92 22.9 µM | SF-295 41.4 µM | M14 42.1 µM | NCI-H226 23.7 µM | MCF7 52.4 µM | DU-145 47.2 µM | HCT-116 19.6 µM | IGROV-1 66.7 µM | RPMI-8226 28.5 µM | CCRF-CEM 23.6 µM

Cc1ccccc1C1CC(=O)CC(c2ccccc2C)C12C(=O)NC(=S)NC2=O (stereo not drawn)
inactive: U-251 30.7 µM | A498 22.9 µM | Malme-3M 25.6 µM | HL-60 21 µM | SK-OV-3 37.2 µM | SK-MEL-5 17.2 µM | LOX IMVI 17.2 µM | OVCAR-5 50.1 µM | HOP-92 26.1 µM | SF-295 24.8 µM | M14 24.3 µM | NCI-H226 20 µM | MCF7 32 µM | DU-145 41.7 µM | SW-620 28.5 µM | HCT-116 20.5 µM | RPMI-8226 12.6 µM | CCRF-CEM 25 µM
